Experiments:
HRECs [1] = assay: EdU incorporation and Ki-67 staining in HRECs; assay type: cell-based, human
Description: EdU incorporation, Ki-67 Staining and TUNEL. These assays were carried out as described previously (Basavarajappa et al., PLoS One 9:e95694 (2014); Basavarajappa et al., EMBO Mol Med 9:786-801 (2017)) with the exception of using chamber slides, not coverslips. Briefly, cells (30,000 per well) were seeded on 8-well chamber slides coated with attachment factors and allowed to attach overnight. Cells were treated with the indicated compound concentrations for 17 hours (overnight). To assay proliferation, cells were incubated with EdU in complete media for 8 hours at 37° C. Cells were then fixed in 4% paraformaldehyde for 20 minutes and permeabilized using 0.25% Triton X-100 prepared in PBS. Cells were incubated with a rabbit-specific monoclonal antibody against Ki-67 (D3B5) (#9129; Cell Signaling, Danvers, Mass.) (1:400) overnight at 4° C. Secondary antibody was Alexa Fluor goat anti-rabbit 488 (A11034; Invitrogen, Carlsbad, Calif.) with DAPI counter-stain for nuclear staining. Proliferating cells that incorporated EdU were detected using the Click-iT EdU Imaging kit (Invitrogen, Carlsbad, Calif.). […] The cells were imaged using a Zeiss AxioImager D2 microscope or an LSM 700 confocal microscope and the percentage of positive cells was counted on three low-power (for TUNEL) or high-power (for Ki-67 and EdU) fields per well using ImageJ software.

[2] = system: APE1 repair activity in neurons; details: cited from earlier work
NF-κB p65 = NF-κB p65 nuclear translocation assay in TNF-α stimulated HRECs; assay type: cell-based, human; details: 10 ng/ml TNF-α
Description: NF-κB p65 nuclear translocation assay. The NF-κB nuclear translocation assay was performed by seeding 30,000 HRECs/well on an 8-well chamber slide coated with attachment factors. The cells were grown in EGM-2 medium overnight before treating with indicated concentrations of APX2009 and APX2014, or 10 μM BAY 11-7082 (Sigma, St. Louis, Mo.) as a positive control NF-κB inhibitor. After 17 hours incubation, the media was replaced with EBM-2 (minimal medium) with indicated concentrations of compound or DMSO for 1 hour. The cells were then stimulated with 10 ng/ml TNF-α in EBM-2 for 20 minutes at 37° C. to activate NF-κB. Cells were then fixed in 4% paraformaldehyde and permeabilized using 0.5% Triton X-100 solution prepared in PBS. The cells were incubated with a monoclonal antibody against NF-κB p65 (sc-8008; Santa Cruz, Santa Cruz, Calif.) (1:50) overnight at 4° C., followed by Alexafluor 555 goat anti-mouse secondary antibody (1:2000) for one hour. The cells were counter-stained with Hoechst 33342 for nuclear staining and then mounted using Everbrite hardset mounting medium. The cells were imaged using a Zeiss AxioImager D2 microscope.

Rf/6a cells = assay: Matrigel tube formation assay, Rf/6a; assay type: cell-based, macaque; details: mid nanomolar concentrations, vs control
Description: In vitro Matrigel tube formation assay. The ability of HRECs and Rf/6a cells to form tubes in vitro was monitored as described before (Basavarajappa et al., PLoS One 9:e95694 (2014); Basavarajappa et al., EMBO Mol Med 9:786-801 (2017)). Briefly, cells were treated with the indicated concentrations of APX2009 or APX2014 compounds or DMSO for 48 hours and then 1.5×10^4 cells in 100 μL of growth medium containing DMSO or APX compounds were added to each well of a 96-well plate that was pre-coated with 50 μL of Matrigel basement membrane (DMSO final concentration=1%). Digital photographs of each well at different time points were taken to measure the in vitro tube formation using the Angiogenesis Analyzer plugin in ImageJ software (v.1.48; http://image.bio.methods.free.fr/ImageJ/?Angiogenesis-Analyzer-for-ImageJ.html).

[3] = system: murine choroidal explants; assay: Ex vivo choroidal sprouting assay; assay type: cell-based, mouse; details: for reduction of choroidal sprouting compared to control: 48 hours
Text: Animals. All animal experiments were approved by the Indiana University School of Medicine Institutional Animal Care and Use Committee and followed the guidelines of the Association for Research in Vision and Ophthalmology Statement for the Use of Animals in Ophthalmic and Visual Research. Wild-type female C57BL/6 mice, 6-8 weeks of age, were purchased from Envigo (Indianapolis, Ind.; for choroidal sprouting experiments) or Jackson Laboratory (Bar Harbor, Me.; for L-CNV) and housed under standard conditions (Wenzel et al., Mol Vis 21:515-522 (2015)). Mice were anesthetized for all procedures by intraperitoneal injections of 90 mg/kg ketamine hydrochloride and 5 mg/kg xylazine, with intraperitoneal atipamezole reversal (1 mg/kg). Treatments were randomly assigned by cage.
Choroidal sprouting assay. Ex vivo Choroidal sprouting was assessed as described previously (Sulaiman et al., Sci Rep 6:25509 (2016); Basavarajappa et al., EMBO Mol Med 9:786-801 (2017)). Briefly, choroid-sclera was dissected from 7 to 8 week old mouse eyes and pieces were embedded in Matrigel (growth factor reduced) and grown in EGM-2 medium containing antibiotics for 72 hours to allow sprouting to initiate. The indicated concentrations of APX2009 and APX2014 compounds (in DMSO, final DMSO concentration 0.5 and 0.2%, respectively) were added and growth allowed to proceed for 48 hours Images were taken and growth was quantified by measuring the distance from the edge of the choroidal piece to the growth front in four directions per sample using ImageJ software.

HRECs [4] = assay: Propidium iodide cell cycle analysis in HRECs; assay type: cell-based, human; details: high doses, 24 hours
Description: Cell cycle analysis. HRECs (2×10^6) were grown in EGM-2 medium. Cells were serum starved in EBM-2 medium overnight, then treated with the indicated concentrations of APX2009 or APX2014 along with DMSO control for 24 hours in complete medium. Cells were washed twice in ice-cold PBS followed by fixation in 66% ethanol solution overnight at 4° C. Fixed cells were again washed twice in ice-cold PBS and the pellets were resuspended in propidium iodide staining solution for 30 minutes at 37° C. (20 μg/mL propidium iodide prepared in 1×PBS containing 0.1% Triton X-100 and 100 μg/mL RNase A). After incubation cells were analyzed using flow cytometry (FACSCalibur, BD Biosciences, San Jose, Calif.). Pulse shape analysis was used to exclude doublets and debris. The single cell population was then assessed by the FL2 area histogram plot using ModFit software (v. 5.0) and cell cycle profiles were generated.

| Structure (SMILES) | cells going through S phase (Ki-67 staining, EdU incorporation) (HRECs [1]) | APE1 repair activity in neurons [2] | translocation of p65 into the nucleus in response to TNF-α (NF-κB p65) | ability to form tubes, Rf/6a (Rf/6a cells) | reduction of choroidal sprouting compared to control ([3]; at 10 μM) [%] | concentrations inhibiting choroidal sprouting ex vivo [3] | cell cycle phase distribution (HRECs [4]) | reduction of choroidal sprouting compared to control ([3]; at 1 μM (highest concentration tested)) [%] |
| --- | --- | --- | --- | --- | --- | --- | --- | --- |
| CCC/C(=C\C1=C(OC)C(=O)c2ccccc2C1=O)C(=O)N(CC)CC [APX2009, (2E)-2-[(3-methoxy-1,4-dioxo-1,4-dihydronaphthalen-2-yl)methylidene]-N,N-diethylpentanamide] | reduced the number of cells going through S phase | can enhance APE1 repair activity | dose-dependently attenuated | significantly reduced | ~70 | low micromolar | modest increase in cells in G0/G1 phase | – |
| CCC/C(=C\C1=C(OC)C(=O)c2ccccc2C1=O)C(=O)NOC [APX2014, (2E)-2-[(3-methoxy-1,4-dioxo-1,4-dihydronapthalen-2-yl)methylidene]-N-methoxypentanamide] | reduced the number of cells going through S phase | – | dose-dependently attenuated | significantly reduced | – | high nanomolar | modest increase in cells in G0/G1 phase | ~60 |

Reference: US11723886B2, “Targeting ocular diseases with novel APE1/Ref-1 inhibitors” (Indiana University Research and Technology Corporation, priority 2018, dated 2023)
